Measurements as given in patent US6262095A, “Use of tricyclic derivatives of 1,4-dihydro-1,4-dioxo-1H-naphthalene, novel compounds obtained and their application in theraphy” (Laboratoire Innothera, priority 1995, dated 2001).

Columns and labels:
[1] = tested on: saphenous vein in rabbits; experiment: Contractile effect on the rabbit saphenous vein precontracted by a depolarizing physiological solution (K+ 40 mM); format: cell-based; details: Oryctolagus cuniculus, precontracted with 40 mM potassium; for Emax: % of maximum contraction induced by hyperpotassic solutions; for EC50: read-out: ED50 (the source's name)
Procedure: The contractile effects are measured in vitro under static conditions on vascular capacitance or resistance rings of saphenous, femoral, jugular, mesenteric, and caval veins . . . and on femoral, carotid, basilar, or mesenteric arteries, as well as the thoracic or abdominal aorta . . . in rats (Wistar, 200-250 g), rabbits (New Zealand, 2-2.5 kg), guinea pigs (Dunkin Hartley 250-300 g).
The rings are placed in a chamber for isolated organs (25 mL for capacitance vessels and 2.5 mL for resistance vessels according to Mulvany), and maintained under isometric conditions using two rigid threads inserted inside the vessel, avoiding causing damage to the endothelium. The vessels are bathed in a modified Krebs solution (in mM: NaCl=118; KCl=4.6; CaCl2 =2.5; MgSO4 =1.2; KH2 PO4 =1.17; NaHCO3 =25; glucose=11), continuously aerated using a gaseous mixture of 95% O2 and 5% Co2, at a pH=7.4, and regulated by thermostat at 37° C. The rings are adjusted to their optimal point as far as the tension-length relationship is concerned. The tensions developed generate an electrical signal through the intermediary of a force sensor (Wheatstone bridge). […] The pharmacological studies are carried out after a few standardized preliminary contractile stimulations using a depolarizing solution (hyperpotassic type obtained by replacing NaCl with KCl in equimolar quantities), along with rinsings and periods of equilibration in a pure physiological solution. The presence of endothelium is verified by the relaxation induced by increasing the concentration of acetylcholine after the stabilization of a vascular precontraction.
The forces of contraction developed by the vascular rings in response to the different compounds are studied on quiescent or electrically stimulated vessels (5-8 Hz), by a "physiological" depolarizing hyperpotassic solution (KCl: 20, 40 mM), by noradrenaline (increasing concentrations), [and by] serotonin (increasing concentrations).
The contractions are expressed in mg force or as a percentage of the maximum contraction at the time of the depolarization with a "physiological" hyperpotassic solution.
The contractile effect of different compounds on the saphenous vein in rabbits, precontracted by a depolarizing "physiological" solution with a potassium concentration of 40 mM, is given as an illustration; the maximum effect produced by each compound is expressed as a percentage of the maximum contraction induced by depolarizing hyperpotassic solutions and as value of ED50): […]

[2] = tested on: fibroblastic cell lines of mice (L929); experiment: Cytotoxicity on L929 fibroblastic cell lines (neutral red incorporation); format: cell-based, mouse; details: L929, up to concentrations equal to their solubility in an aqueous medium
From the text: (§1) Moreover, the compounds of the invention and their possible salts have a very low toxicity.

[3] = tested on: capillary resistance of rats; experiment: Capillary resistance of rats after oral administration (petechial index); format: in vivo, rat (Wistar); details: rat
Procedure: The increase in the capillary resistance is evaluated by the modification of the petechial index (negative pressure inducing the extravasation of the erythrocytes), measured by a method derived from the angiosterrometer of Parrot.
The studies are carried out on male Wistar rats with an average weight of 200 g (approximate age six weeks). The bottom area of the back is shorn, then the hair is pulled by means of a paste based on a derivative of thioglycolic acid and calcium hydroxide. After approximately 30 min, the skin is abundantly rinsed and dried.
On the day of the study, the rats are maintained without constraint. A low pressure of 80 mm of mercury is applied. If the petechiae (extravasation of erythrocytes) have not appeared within 15 sec, the low pressure is increased as a countermeasure, keeping the suction cap at the same place.
The minimum low pressure where petechias appear, in mm of mercury, expresses the basal capillary resistance (before any treatment). Two measurements are made for each test at different sites on of the back.
The rats are treated by the oral route. […] All the measurements are done in the blind mode.
A percentage of variation in the capillary resistances of the animals treated compared to their basal capillary resistance is calculated for each compound studied, at each treatment time and compared with the control group (excipient only) or the reference group.

[4] = tested on: hyperpermeability induced by zymosan in rats; experiment: Inflammatory hyperpermeability induced by zymosan in rats; format: in vivo, rat (Wistar); details: rat, oral
Procedure: The vascular permeability is studied in vivo by measuring the extravasation of albumin, the quantity of which is determined using an albumin-binding dye (Evans blue).
The hyperpermeability is induced by the intradermal injection of a solution of histamine, bradykinin, or zymosan.
The abdominal walls of the rats (Wistar, 200-230 g) are shorn 1 h before the start of the experiment. The product to be tested is injected by the intraperitoneal route or orally 1-4 h before the sacrifice. The rats are anesthetized with a halothane mixture. They then receive an intradermal injection in their abdomen of 0.10 or 0.15 mL (or for histamine 6.7 or […]) of inflammatory agent and an intravenous injection of 1 mL of 0.5% Evans blue solution in the vein of the penis. These injections are carried out 30 min before the sacrificing.
30 min after these two injections, the rats are sacrificed by cervical dislocation.
At the site of the injection of the inflammatory agent, the skin is cut and placed into glass tubes with a ground[-glass] neck containing 3 mL of fuming hydrochloric acid. […] After allowing the preparation to stand for 30 min, 7 mL of dichloromethane are added. The tubes are periodically agitated for 1 h. The aqueous phase is eliminated by aspiration, and the organic "dichloromethane" phase is filtered. The optical densities are quantified by absorption spectrophotometry at a wavelength of 620 nm, against a blank [control] containing only dichloromethane. The averages of the optical densities of the different lots of treated or control animals are calculated, then a percentage of variation of the values corresponding to the treated [experimental] animals compared to those of the control animals is calculated.

mice = experiment: Single oral administration toxicity in mice; format: in vivo, mouse
From the text: as §1

[5] = single oral administration of 500 mg/kg
[6] = single oral administration, 1 g/kg

Row | SMILES | Emax [1] | EC50 [1] | cytotoxicity (viability by neutral red incorporation) [2] | Zymosan-induced hyperpermeability, effect after 2 h ([4]; 0.1 mg/kg) | Zymosan-induced hyperpermeability, effect after 4 h ([4]; 0.1 mg/kg) | toxic effect and mortality (mice; [5]) | toxic effect and mortality (mice; [6]) | further results
1 | O=C1c2ccccc2C(=O)c2sc(-c3cccs3)nc21 [Example 20, 4,9-Dihydro-4,9-dioxo-2-(2-thienyl)-naphtho[2,3-d]thiazole] | 24 ± 4% | 0.11 µM | noncytotoxic | – | – | – | – | –
2 | O=C1c2ccccc2C(=O)c2oc(-c3ccccc3F)nc21 [Example 3, 4,9-Dihydro-4,9-dioxo-2-(2-fluorophenyl)-naphtho[2,3-d]oxazole] | 17 ± 6% | 0.036 µM | noncytotoxic | -22 % of the control | -26 % of the control | no observable toxic effect and no mortality | – | Increase of capillary resistance, effects after 4 h ([3]; 5 mg/kg): 27 % of the control; Increase of capillary resistance, effect after 6 h ([3]; 5 mg/kg): 18 % of the control; observed signs (mice; [5]): slight diarrheas
3 | Cc1nc2c(s1)C(=O)c1ccccc1C2=O [Example h, 4,9-Dihydro-4,9-dioxo-2-methylnaphtho[2,3-d]thiazole] | 29 ± 6% | 0.086 µM | – | – | – | – | no observable toxic effect and no mortality | Increase of capillary resistance, effects after 4 h ([3]; 0.1 mg/kg): 19 % of the control; Increase of capillary resistance, effect after 6 h ([3]; 0.1 mg/kg): 19 % of the control; observed signs (mice; [6]): diarrheas
4 | O=C1c2ccccc2C(=O)c2oc(-c3ccccc3)nc21 [Example f, 4,9-Dihydro-4,9-dioxo-2-phenylnaphtho[2,3-d]oxazole] | 15 ± 1% | 0.021 µM | noncytotoxic | -15 % of the control | -22 % of the control | – | no observable toxic effect and no mortality | Increase of capillary resistance, effects after 4 h ([3]; 0.1 mg/kg): 7 % of the control; Increase of capillary resistance, effect after 6 h ([3]; 0.1 mg/kg): 17 % of the control
5 | O=C1c2ccccc2C(=O)c2oc(-c3cccc(F)c3)nc21 [Example 4, 4,9-Dihydro-4,9-dioxo-2-(3-fluorophenyl)-naphtho[2,3-d]oxazole] | 29 ± 11% | 0.042 µM | noncytotoxic | – | – | – | – | –
6 | O=C1c2ccccc2C(=O)c2sc(-c3cccc(F)c3)nc21 [Example 13, 4,9-Dihydro-4,9-dioxo-2-(3-fluorophenyl)-naphtho[2,3-d]thiazole] | 21 ± 3% | 0.057 µM | – | – | – | – | no observable toxic effect and no mortality | –
7 | O=C1c2ccccc2C(=O)c2oc(-c3ccc(F)cc3)nc21 [Example 5, 4,9-Dihydro-4,9-dioxo-2-(4-fluorophenyl)-naphtho[2,3-d]oxazole] | – | – | – | – | – | no observable toxic effect and no mortality | – | –
8 | O=C1c2ccccc2C(=O)c2sc(-c3ccccc3)nc21 [Example j, 4,9-Dihydro-4,9-dioxo-2-phenylnaphtho[2,3-d]thiazole] | 16 ± 6% | 0.03 µM | noncytotoxic | -14 % of the control | -32 % of the control | no observable toxic effect and no mortality | – | –
9 | O=C1c2ccccc2C(=O)c2sc(-c3ccsc3)nc21 [Example 21, 4,9-Dihydro-4,9-dioxo-2-(3-thienyl)-naphtho[2,3-d]thiazole] | – | – | noncytotoxic | – | – | – | – | Increase of capillary resistance, effects after 4 h ([3]; 5 mg/kg): 10 % of the control; Increase of capillary resistance, effect after 6 h ([3]; 5 mg/kg): 22 % of the control; Zymosan-induced hyperpermeability, effect after 2 h ([4]; 5 mg/kg): -22 % of the control; Zymosan-induced hyperpermeability, effect after 4 h ([4]; 5 mg/kg): -21 % of the control
